# Measurements from PMC11283614 (Veterinary World, 2024).
# Read-outs that look alike come from different tables or passages of the source. Marks after values point to notes of the source that are not given here.
# Tests used:
# in vitro = conditions: African green monkey
# [1] = tested on: SARS-CoV-2 (delta strain); parameters: species or system Syrian hamsters; conditions: hamster, in vivo
# [2] = tested on: SARS-CoV-2 (delta strain); parameters: species or system Syrian hamsters; conditions: hamster, in vivo; remark: listed apart in the source
# SARS-CoV-2 [3] = experiment: Blood cell populations (blood smears) of infected hamsters; format: in vivo, Syrian hamsters; conditions: 7 dpi, therapeutic action
# SARS-CoV-2 [4] = experiment: Suppression of SARS-CoV-2 replication in Vero cells, CPE-based titration of supernatant; format: cell-based; conditions: for Time during which viral activity was inhibited: 100 TCD50/mL SARS-CoV-2, compounds added after 1 h virus incubation; for Suppression of viral activity: up to a dilution of 100 TCD50/ml
# [5] = Syrian, in vivo; for Number of dead hamsters after 2 days / Number of dead hamsters after 7 days: hamster
# SARS-CoV-2 [6] = experiment: Myelogram / bone marrow cell populations of infected hamsters; format: in vivo, Syrian hamsters
# VERO cells = conditions: incubation 24 h
structure (smiles),measurement,setting,value
CSc1nnc2cc(C)nc(SC)n12 [5a],CC50,in vitro,240 µg/mL
COC(=O)CSc1nnc2cc(C)nc(SC)n12 [5c],CC50,in vitro,40 µg/mL
CSc1nc(C)cc2nnc(SCCOc3ccccc3)n12 [5d],Development of lung injury (micro-CT),[1],inhibited
same,BM section histology (H&E),[2],preserved structure and cellularity
same,BM smear,[2],restored erythroid population
same,Blood cells: Band,SARS-CoV-2 [3],19 ± 4.8%
same,Blood cells: Basophil,SARS-CoV-2 [3],0.01%
same,Blood cells: Destroyed,SARS-CoV-2 [3],1.0%
same,Blood cells: Eosinophil,SARS-CoV-2 [3],0.1 ± 0.05%
same,Blood cells: Lymphoblast,SARS-CoV-2 [3],0.9 ± 0.2%
same,Blood cells: Lymphocyte,SARS-CoV-2 [3],65 ± 9.3%
same,Blood cells: Metamyelocyte,SARS-CoV-2 [3],2 ± 0.5%
same,Blood cells: Monocyte,SARS-CoV-2 [3],2.1 ± 0.3%
same,Blood cells: Myeloid,SARS-CoV-2 [3],1.1 ± 0.1%
same,Blood cells: Segment,SARS-CoV-2 [3],8.8%
same,CC50,in vitro,320 µg/mL
same,Time during which viral activity was inhibited,SARS-CoV-2 [4],24 to 72 h
same,Suppression of viral activity,SARS-CoV-2 [4],almost completely suppressed
same,Number of dead hamsters after 2 days,[5]; 0.2 mg/kg,0
same,Number of dead hamsters after 7 days,[5]; 0.2 mg/kg,0
same,Number of dead hamsters after 2 days,[5]; 1 mg/kg,0
same,Number of dead hamsters after 7 days,[5]; 1 mg/kg,0
same,Effect on bone marrow changes seen in the positive control group,SARS-CoV-2 [6]; 9th day,does not obstruct the similar bone marrow changes
same,Recovery of bone marrow cell populations compared to the positive control,SARS-CoV-2 [6]; 18th day,more rapid recovery of all cell populations
same,Myelogram: Band,"SARS-CoV-2 [6]; infected hamsters, 9 dpi",26.1 ± 4.4%
same,Myelogram: Basophil,"SARS-CoV-2 [6]; infected hamsters, 9 dpi",0.1 ± 0.04%
same,Myelogram: Basophil erythroblast,"SARS-CoV-2 [6]; infected hamsters, 9 dpi",4.6 ± 0.9%
same,Myelogram: Destroyed,"SARS-CoV-2 [6]; infected hamsters, 9 dpi",3.2 ± 0.3%
same,Myelogram: Eosinophil,"SARS-CoV-2 [6]; infected hamsters, 9 dpi",3.2 ± 0.4%
same,Myelogram: Limph.patol.,"SARS-CoV-2 [6]; infected hamsters, 9 dpi",1.1 ± 0.4%
same,Myelogram: Lymphoblast,"SARS-CoV-2 [6]; infected hamsters, 9 dpi",3.5 ± 0.6%
same,Myelogram: Lymphocyte,"SARS-CoV-2 [6]; infected hamsters, 9 dpi",8.9 ± 1.2%
same,Myelogram: Macroph. Island,"SARS-CoV-2 [6]; infected hamsters, 9 dpi",1.6 ± 0.03%
same,Myelogram: Macroph. Resident,"SARS-CoV-2 [6]; infected hamsters, 9 dpi",1.6 ± 0.05%
same,Myelogram: Megakaryoblast,"SARS-CoV-2 [6]; infected hamsters, 9 dpi",1.6 ± 0.02%
same,Myelogram: Megakaryocyte azurophil,"SARS-CoV-2 [6]; infected hamsters, 9 dpi",1.6 ± 0.1%
same,Myelogram: Megakaryocyte basophil,"SARS-CoV-2 [6]; infected hamsters, 9 dpi",1.6 ± 0.1%
same,Myelogram: Metamyelocyte,"SARS-CoV-2 [6]; infected hamsters, 9 dpi",5.2 ± 1.0%
same,Myelogram: Mitos,"SARS-CoV-2 [6]; infected hamsters, 9 dpi",1.6 ± 0.02%
same,Myelogram: Monoblast,"SARS-CoV-2 [6]; infected hamsters, 9 dpi",2.9 ± 0.7%
same,Myelogram: Monocyte,"SARS-CoV-2 [6]; infected hamsters, 9 dpi",3.8 ± 0.8%
same,Myelogram: Myeloid,"SARS-CoV-2 [6]; infected hamsters, 9 dpi",3.9 ± 0.5%
same,Myelogram: Ortochrom erythroblast,"SARS-CoV-2 [6]; infected hamsters, 9 dpi",8.8 ± 0.9%
same,Myelogram: Pathol neutrophil,"SARS-CoV-2 [6]; infected hamsters, 9 dpi",2.1 ± 0.5%
same,Myelogram: Polychromatophil erythroblast,"SARS-CoV-2 [6]; infected hamsters, 9 dpi",5.9 ± 2.1%
same,Myelogram: Proerythroblast,"SARS-CoV-2 [6]; infected hamsters, 9 dpi",3.1 ± 0.5%
same,Myelogram: Segment,"SARS-CoV-2 [6]; infected hamsters, 9 dpi",3.7 ± 0.5%
same,Myelogram: Band,"SARS-CoV-2 [6]; infected hamsters, 18 dpi",15.6 ± 3.1 %
same,Myelogram: Basophil,"SARS-CoV-2 [6]; infected hamsters, 18 dpi",0.01 ± 0.01%
same,Myelogram: Destroyed,"SARS-CoV-2 [6]; infected hamsters, 18 dpi",0.1 ± 0.01%
same,Myelogram: Eosinophil,"SARS-CoV-2 [6]; infected hamsters, 18 dpi",0.2 ± 0.01%
same,Myelogram: Limph.patol.,"SARS-CoV-2 [6]; infected hamsters, 18 dpi",0.1 ± 0.04 %
same,Myelogram: Lymphoblast,"SARS-CoV-2 [6]; infected hamsters, 18 dpi",2.3 ± 0.5%
same,Myelogram: Lymphocyte,"SARS-CoV-2 [6]; infected hamsters, 18 dpi",5.2 ± 0.8%
same,Myelogram: Macroph. Island,"SARS-CoV-2 [6]; infected hamsters, 18 dpi",0.1 ± 0.01%
same,Myelogram: Macroph. Resident,"SARS-CoV-2 [6]; infected hamsters, 18 dpi",0.1 ± 0.01%
same,Myelogram: Megakaryoblast,"SARS-CoV-2 [6]; infected hamsters, 18 dpi",0.03 ± 0.02%
same,Myelogram: Megakaryocyte azurophil,"SARS-CoV-2 [6]; infected hamsters, 18 dpi",0.01 ± 0.01%
same,Myelogram: Megakaryocyte basophil,"SARS-CoV-2 [6]; infected hamsters, 18 dpi",0.01 ± 0.01%
same,Myelogram: Metamyelocyte,"SARS-CoV-2 [6]; infected hamsters, 18 dpi",20.1 ± 4.3%
same,Myelogram: Mitos,"SARS-CoV-2 [6]; infected hamsters, 18 dpi",0.01 ± 0.01%
same,Myelogram: Monoblast,"SARS-CoV-2 [6]; infected hamsters, 18 dpi",1.0 ± 0.02%
same,Myelogram: Monocyte,"SARS-CoV-2 [6]; infected hamsters, 18 dpi",1.5 ± 0.4%
same,Myelogram: Myeloid,"SARS-CoV-2 [6]; infected hamsters, 18 dpi",14.3 ± 2.7%
same,Myelogram: Pathol neutrophil,"SARS-CoV-2 [6]; infected hamsters, 18 dpi",0.1 ± 0.01 %
same,Myelogram: Polychromatophil erythroblast,"SARS-CoV-2 [6]; infected hamsters, 18 dpi",17.9 ± 2.3 %
same,Myelogram: Segment,"SARS-CoV-2 [6]; infected hamsters, 18 dpi",3.3 ± 0.3 %
CSc1nnc2cc(C)nc(SCc3ccccc3)n12 [6a],CC50,in vitro,20 µg/mL
Cc1cc2nnc(SCCOc3ccccc3)n2c(SCc2ccccc2)n1 [6d],CC50,in vitro,320 µg/mL
same,Monolayer preservation of VERO cells (toxicity),VERO cells,-
CSc1nnc2ccc(-n3nc(C)cc3C)nn12 [10a],CC50,in vitro,40 µg/mL
Cc1cc(C)n(-c2ccc3nnc(SCC(N)=O)n3n2)n1 [10b],Development of lung injury (micro-CT),[1],inhibited
same,Liver pathology (leukocyte / neutrophilic diapedesis),[2],Absence of neutrophils in liver tissues
same,Blood cells: Band,SARS-CoV-2 [3],27 ± 8.6%
same,Blood cells: Destroyed,SARS-CoV-2 [3],0.9 ± 0.02%
same,Blood cells: Eosinophil,SARS-CoV-2 [3],0.1 ± 0.01%
same,Blood cells: Lymphoblast,SARS-CoV-2 [3],4.0 ± 0.3%
same,Blood cells: Lymphocyte,SARS-CoV-2 [3],42.3 ± 6.7%
same,Blood cells: Metamyelocyte,SARS-CoV-2 [3],1.0 ± 0.1%
same,Blood cells: Monocyte,SARS-CoV-2 [3],3.9 ± 0.9%
same,Blood cells: Myeloid,SARS-CoV-2 [3],1 ± 0.05%
same,Blood cells: Pathol neutrophil,SARS-CoV-2 [3],2.8 ± 0.7%
same,Blood cells: Segment,SARS-CoV-2 [3],20%
same,CC50,in vitro,240 µg/mL
same,Time during which viral activity was inhibited,SARS-CoV-2 [4],24 to 72 h
same,Suppression of viral activity,SARS-CoV-2 [4],almost completely suppressed
same,Number of dead hamsters after 2 days,[5]; 0.16 mg/kg,0
same,Number of dead hamsters after 7 days,[5]; 0.16 mg/kg,0
same,Number of dead hamsters after 2 days,[5]; 0.8 mg/kg,0
same,Number of dead hamsters after 7 days,[5]; 0.8 mg/kg,1 ^*
same,Autopsy and histological findings in dead hamster,[5]; 0.8 mg/kg,"* Autopsy and histological studies revealed massive hemorrhages in the abdominal cavity and leukopenia. In all investigated preparations except 10b, no lethal effect was observed throughout the experiment. No abnormal appearance or behavior was noted in all investigated groups."
Cc1cc(C)n(-c2ccc3nnc(SCCOc4ccccc4)n3n2)n1 [10d],Development of lung injury (micro-CT),[1],inhibited
same,Spleen smear,[2],proliferation of late erythroblasts
same,Blood cells: Band,SARS-CoV-2 [3],20.7 ± 7.3%
same,Blood cells: Basophil,SARS-CoV-2 [3],0.01 ± 0.005%
same,Blood cells: Eosinophil,SARS-CoV-2 [3],0.5 ± 0.01%
same,Blood cells: Lymphoblast,SARS-CoV-2 [3],0.9 ± 0.1%
same,Blood cells: Lymphocyte,SARS-CoV-2 [3],58 ± 6.2%
same,Blood cells: Metamyelocyte,SARS-CoV-2 [3],3.1 ± 0.4%
same,Blood cells: Monoblast,SARS-CoV-2 [3],1.0 ± 0.1%
same,Blood cells: Pathol neutrophil,SARS-CoV-2 [3],0.9 ± 0.1%
same,Blood cells: Segment,SARS-CoV-2 [3],13%
same,CC50,in vitro,480 µg/mL
same,Time during which viral activity was inhibited,SARS-CoV-2 [4],24 to 72 h
same,Suppression of viral activity,SARS-CoV-2 [4],almost completely suppressed
same,Number of dead hamsters after 2 days,[5]; 0.32 mg/kg,0
same,Number of dead hamsters after 7 days,[5]; 0.32 mg/kg,0
same,Number of dead hamsters after 2 days,[5]; 1.6 mg/kg,0
same,Number of dead hamsters after 7 days,[5]; 1.6 mg/kg,0
Cc1cc(C)n(-c2ccc3nnc(C)n3n2)n1 [compound 8],Development of lung injury (micro-CT),[1],inhibited
same,LN section histology (H&E),[2],preserved structure and cellularity
same,Lung pathology (diffuse lymphocytic-macrophage infiltrates),[2],Mild pathological manifestations
same,Blood cells: Band,SARS-CoV-2 [3],10.0 ± 2.7%
same,Blood cells: Destroyed,SARS-CoV-2 [3],1.9 ± 0.3%
same,Blood cells: Eosinophil,SARS-CoV-2 [3],0.5 ± 0.1%
same,Blood cells: Lymphoblast,SARS-CoV-2 [3],1.1 ± 0.1%
same,Blood cells: Lymphocyte,SARS-CoV-2 [3],77.2 ± 8.1%
same,Blood cells: Metamyelocyte,SARS-CoV-2 [3],2.0 ± 0.6%
same,Blood cells: Monoblast,SARS-CoV-2 [3],2.9 ± 0.5%
same,Blood cells: Monocyte,SARS-CoV-2 [3],1.2 ± 0.1%
same,Blood cells: Segment,SARS-CoV-2 [3],4%
same,CC50,in vitro,480 µg/mL
same,Time during which viral activity was inhibited,SARS-CoV-2 [4],24 to 72 h
same,Suppression of viral activity,SARS-CoV-2 [4],almost completely suppressed
same,Number of dead hamsters after 2 days,[5]; 0.3 mg/kg,0
same,Number of dead hamsters after 7 days,[5]; 0.3 mg/kg,0
same,Number of dead hamsters after 2 days,[5]; 1.5 mg/kg,0
same,Number of dead hamsters after 7 days,[5]; 1.5 mg/kg,0
